Calls of active or inactive are those of the source. The rule behind the calls is not given here.
Assays:
[1] = Selectivity index, ratio of cytotoxic CC50 for HEL cells to EC50 for VZV 07/01
[2] = tested on: Vesicular stomatitis virus; assay: Antiviral activity against VSV by viral CPE assay; format: functional, organism-based
Punta Toro virus = assay: Antiviral activity against Punta Toro virus by viral CPE assay; format: functional, organism-based
[3] = Selectivity index, ratio of cytotoxic CC50 for HEL cells to EC50 for VZV Oka
[4] = Selectivity index, ratio of cytotoxic CC50 for HEL cells to EC50 for VZV YS/R
[5] = Selectivity index, ratio of cytotoxic CC50 for HEL cells to EC50 for Vaccinia virus Lederie; format: toxicity, cell-based; conditions: human, read-out: Ratio CC50/EC50
Vaccinia virus = assay: Antiviral activity against Vaccinia virus Lederie infected in HEL cells by viral CPE assay; format: functional, organism-based; conditions: Orthopoxvirus vaccinia
Human alphaherpesvirus 1 [6] = assay: Antiviral activity against thymidine kinase negative and ACV resistant HSV1 KOS infected in HEL cells by viral CPE assay; format: functional, organism-based; conditions: Human alphaherpesvirus 1, KOS
Human alphaherpesvirus 3 [7] = assay: Antiviral activity against thymidine kinase negative VZV YS/R infected in HEL cells by plaque formation assay; format: functional, organism-based; conditions: Human alphaherpesvirus 3, YS/R
[8] = tested on: Human immunodeficiency virus 2; assay: Antiviral activity against HIV2 ROD infected in human CEM cells assessed as reduction in virus-induced CEM giant cell formation incubated for 4 days at 37 degC by microscopy; format: functional, organism-based; conditions: ISOLATE ROD, CCRF-CEM
Human alphaherpesvirus 2 = assay: Antiviral activity against HSV2 G infected in HEL cells by viral CPE assay; format: functional, organism-based; conditions: Human alphaherpesvirus 2, strain G
[9] = tested on: Respiratory syncytial virus; assay: Antiviral activity against Respiratory syncytial virus Long by viral CPE assay; format: functional, organism-based
Human respirovirus 3 = assay: Antiviral activity against Human parainfluenza virus 3 by viral CPE assay; format: functional, organism-based
[10] = Cytotoxicity against HEL cells assessed as effect on cell morphology incubated for 3 days by microscopy; format: cell-based; conditions: human
[11] = Selectivity index, ratio of cytotoxic CC50 for HEL cells to EC50 for ACV resistant HSV1 KOS
[12] = tested on: Mammalian orthoreovirus 1; assay: Antiviral activity against Reovirus 1 by viral CPE assay; format: functional, organism-based
Human alphaherpesvirus 3 [13] = assay: Antiviral activity against thymidine kinase negative VZV 07/01 infected in HEL cells by plaque formation assay; format: functional, organism-based; conditions: Human alphaherpesvirus 3, 07/01, HEL
Human betaherpesvirus 5 [14] = assay: Antiviral activity against HCMV Davis infected in HEL cells by viral CPE assay; format: functional, organism-based; conditions: Human betaherpesvirus 5, Davis
Felid alphaherpesvirus 1 = assay: Antiviral activity against Feline herpesvirus infected in CRFK cells by viral CPE assay; format: functional, organism-based; conditions: Felid alphaherpesvirus 1, CRFK
Human alphaherpesvirus 3 [15] = assay: Antiviral activity against thymidine kinase positive VZV YS infected in HEL cells by plaque formation assay; format: functional, organism-based; conditions: Human alphaherpesvirus 3, YS
[16] = Selectivity index, ratio of cytotoxic CC50 for HEL cells to EC50 for HCMV Davis
Coxsackievirus B4 = assay: Antiviral activity against Human coxsackievirus B4 by viral CPE assay; format: functional, organism-based
[17] = Selectivity index, ratio of cytotoxic CC50 for HEL cells to EC50 for HSV1 KOS
[18] = Selectivity index, ratio of cytotoxic CC50 for HEL cells to EC50 for HCMV AD169
Human alphaherpesvirus 1 [19] = assay: Antiviral activity against HSV1 KOS infected in HEL cells by viral CPE assay; format: functional, organism-based; conditions: Human alphaherpesvirus 1, KOS
[20] = Selectivity index, ratio of cytotoxic CC50 for HEL cells to EC50 for HSV2 G
Human alphaherpesvirus 3 [21] = assay: Antiviral activity against thymidine kinase positive VZV OKa infected in HEL cells by plaque formation assay; format: functional, cell-based, Human herpesvirus 3 strain Oka vaccine; conditions: Human alphaherpesvirus 3, OKa
[22] = Selectivity index, ratio of cytotoxic CC50 for HEL cells to EC50 for VZV YS
Sindbis virus = assay: Antiviral activity against Sindbis virus by viral CPE assay; format: functional, organism-based
HEL = assay: Cytotoxicity against HEL cells assessed as effect on cell growth incubated for 3 days by Coulter counter assay; format: cell-based; conditions: human, 72 h
[23] = tested on: Human immunodeficiency virus 1; assay: Antiviral activity against HIV1 3B infected in human CEM cells assessed as reduction in virus-induced CEM giant cell formation incubated for 4 days at 37 degC by microscopy; format: functional, organism-based; conditions: CCRF-CEM
Human betaherpesvirus 5 [24] = assay: Antiviral activity against HCMV AD169 infected in HEL cells by viral CPE assay; format: functional, organism-based; conditions: Human betaherpesvirus 5, AD169, HEL
[25] = Selectivity index, ratio of cytotoxic CC50 for HEL cells to EC50 for Feline herpesvirus; format: toxicity, cell-based; conditions: human, read-out: Ratio CC50/EC50

CCCCCCCCCCCCCCCCOCCCOP(=O)(CO[C@H](CO)Cn1cnc2c(=O)[nH]c(N)nc21)OCCCOCCCCCCCCCCCCCCCC
Ratio CC50/EC50 [1]: >81
Activity [2]: inactive
Activity (Punta Toro virus): inactive
Ratio CC50/EC50 [3]: >29
Ratio CC50/EC50 [4]: >57
selectivity ratio [5]: > 2.5
EC50 (Vaccinia virus): 44700 nM
EC50 (Human alphaherpesvirus 1 [6]): 30500 nM
EC50 (Human alphaherpesvirus 3 [7]): 2000 nM
Activity [8]: inactive
EC50 (Human alphaherpesvirus 2): 23200 nM
Activity [9]: inactive
Activity (Human respirovirus 3): inactive
MCC at 72 h [10]: ≥ 22.6 µM
Ratio CC50/EC50 [11]: >4
Activity [12]: inactive
EC50 (Human alphaherpesvirus 3 [13]): 1400 nM
EC50 (Human betaherpesvirus 5 [14]): 10100 nM
EC50 (Felid alphaherpesvirus 1): > 113000 nM
EC50 (Human alphaherpesvirus 3 [15]): 1200 nM
Ratio CC50/EC50 [16]: >11
Activity (Coxsackievirus B4): inactive
Ratio CC50/EC50 [17]: >9
Ratio CC50/EC50 [18]: >9
EC50 (Human alphaherpesvirus 1 [19]): 11900 nM
Ratio CC50/EC50 [20]: >5
EC50 (Human alphaherpesvirus 3 [21]): 3900 nM
Ratio CC50/EC50 [22]: >94
Activity (Sindbis virus): inactive
CC50 (HEL): > 113000 nM
Activity [23]: inactive
EC50 (Human betaherpesvirus 5 [24]): 11900 nM

CCCCCCCCCCCCCCCCOCCCOP1(=O)CO[C@@H](Cn2cnc3c(=O)[nH]c(N)nc32)CO1 (mixture of isomers)
Ratio CC50/EC50 [1]: 3800
Activity [2]: inactive
Activity (Punta Toro virus): inactive
Ratio CC50/EC50 [3]: 2700
Ratio CC50/EC50 [4]: 3800
selectivity ratio [5]: 146
EC50 (Vaccinia virus): 130 nM
EC50 (Human alphaherpesvirus 1 [6]): 90 nM
EC50 (Human alphaherpesvirus 3 [7]): 5 nM
Activity [8]: inactive
EC50 (Human alphaherpesvirus 2): 80 nM
Activity [9]: inactive
Activity (Human respirovirus 3): inactive
MCC at 72 h [10]: ≥ 171 µM
Ratio CC50/EC50 [11]: 211
Activity [12]: inactive
EC50 (Human alphaherpesvirus 3 [13]): 5 nM
EC50 (Human betaherpesvirus 5 [14]): 2 nM
EC50 (Felid alphaherpesvirus 1): 430 nM
EC50 (Human alphaherpesvirus 3 [15]): 1 nM
Ratio CC50/EC50 [16]: 9500
Activity (Coxsackievirus B4): inactive
Ratio CC50/EC50 [17]: 559
Ratio CC50/EC50 [18]: 3800
EC50 (Human alphaherpesvirus 1 [19]): 34 nM
Ratio CC50/EC50 [20]: 238
EC50 (Human alphaherpesvirus 3 [21]): 7 nM
Ratio CC50/EC50 [22]: 19000
Activity (Sindbis virus): inactive
CC50 (HEL): 19000 nM
selectivity ratio [25]: 398
Activity [23]: inactive
EC50 (Human betaherpesvirus 5 [24]): 5 nM

Nc1nc2c(ncn2C[C@@H](CO)OCP(=O)(O)O)c(=O)[nH]1
Ratio CC50/EC50 [1]: 186
Ratio CC50/EC50 [3]: 70
selectivity ratio [5]: 35
EC50 (Vaccinia virus): 1100 nM
EC50 (Human alphaherpesvirus 1 [6]): 780 nM
EC50 (Human alphaherpesvirus 2): 780 nM
MCC at 72 h [10]: > 100 µM
Ratio CC50/EC50 [11]: 50
EC50 (Human alphaherpesvirus 3 [13]): 210 nM
EC50 (Human betaherpesvirus 5 [14]): 1500 nM
EC50 (Felid alphaherpesvirus 1): 720 nM
Ratio CC50/EC50 [16]: 26
Ratio CC50/EC50 [17]: 50
Ratio CC50/EC50 [18]: 22
EC50 (Human alphaherpesvirus 1 [19]): 780 nM
Ratio CC50/EC50 [20]: 50
EC50 (Human alphaherpesvirus 3 [21]): 560 nM
CC50 (HEL): 39000 nM
selectivity ratio [25]: 157
EC50 (Human betaherpesvirus 5 [24]): 1800 nM
